Reference: ChEMBL document CHEMBL5528046, “Discovery of Novel PROTAC Degraders of p300/CBP as Potential Therapeutics for Hepatocellular Carcinoma” (J Med Chem, 2024)
Activity calls are given as the source filed them. The calls are words filed in the database; no cut-off is given here.

Columns and labels:
SK-HEP1 [1] = test: Induction of cell cycle arrest at G2/M phase in human SK-HEP1 cells assessed as SKP2 protein level at 2 uM incubated for 24 hrs by immunoblotting analysis (reference value: 100%); assay type: functional
SK-HEP1 [2] = test: Downregulation of IGFBP3 mRNA expression in human SK-HEP1 cells at 1 uM incubated for 24 hrs by RT-qPCR analysis; assay type: functional, cell-based
[3] = biological target: T1, Protein cereblon/Histone acetyltransferase p300 (Homo sapiens, UniProt Q09472+Q96SW2); test: PROTAC activity at CRBN/p300 in human SK-HEP1 cells assessed as induction of p300 protein degradation by measuring residual activity at 1 uM incubated for 6 hrs by immunoblotting analysis (reference value: 100%); assay type: cell-based
Target sequence in this assay (Q09472 2-2414 limits assumed): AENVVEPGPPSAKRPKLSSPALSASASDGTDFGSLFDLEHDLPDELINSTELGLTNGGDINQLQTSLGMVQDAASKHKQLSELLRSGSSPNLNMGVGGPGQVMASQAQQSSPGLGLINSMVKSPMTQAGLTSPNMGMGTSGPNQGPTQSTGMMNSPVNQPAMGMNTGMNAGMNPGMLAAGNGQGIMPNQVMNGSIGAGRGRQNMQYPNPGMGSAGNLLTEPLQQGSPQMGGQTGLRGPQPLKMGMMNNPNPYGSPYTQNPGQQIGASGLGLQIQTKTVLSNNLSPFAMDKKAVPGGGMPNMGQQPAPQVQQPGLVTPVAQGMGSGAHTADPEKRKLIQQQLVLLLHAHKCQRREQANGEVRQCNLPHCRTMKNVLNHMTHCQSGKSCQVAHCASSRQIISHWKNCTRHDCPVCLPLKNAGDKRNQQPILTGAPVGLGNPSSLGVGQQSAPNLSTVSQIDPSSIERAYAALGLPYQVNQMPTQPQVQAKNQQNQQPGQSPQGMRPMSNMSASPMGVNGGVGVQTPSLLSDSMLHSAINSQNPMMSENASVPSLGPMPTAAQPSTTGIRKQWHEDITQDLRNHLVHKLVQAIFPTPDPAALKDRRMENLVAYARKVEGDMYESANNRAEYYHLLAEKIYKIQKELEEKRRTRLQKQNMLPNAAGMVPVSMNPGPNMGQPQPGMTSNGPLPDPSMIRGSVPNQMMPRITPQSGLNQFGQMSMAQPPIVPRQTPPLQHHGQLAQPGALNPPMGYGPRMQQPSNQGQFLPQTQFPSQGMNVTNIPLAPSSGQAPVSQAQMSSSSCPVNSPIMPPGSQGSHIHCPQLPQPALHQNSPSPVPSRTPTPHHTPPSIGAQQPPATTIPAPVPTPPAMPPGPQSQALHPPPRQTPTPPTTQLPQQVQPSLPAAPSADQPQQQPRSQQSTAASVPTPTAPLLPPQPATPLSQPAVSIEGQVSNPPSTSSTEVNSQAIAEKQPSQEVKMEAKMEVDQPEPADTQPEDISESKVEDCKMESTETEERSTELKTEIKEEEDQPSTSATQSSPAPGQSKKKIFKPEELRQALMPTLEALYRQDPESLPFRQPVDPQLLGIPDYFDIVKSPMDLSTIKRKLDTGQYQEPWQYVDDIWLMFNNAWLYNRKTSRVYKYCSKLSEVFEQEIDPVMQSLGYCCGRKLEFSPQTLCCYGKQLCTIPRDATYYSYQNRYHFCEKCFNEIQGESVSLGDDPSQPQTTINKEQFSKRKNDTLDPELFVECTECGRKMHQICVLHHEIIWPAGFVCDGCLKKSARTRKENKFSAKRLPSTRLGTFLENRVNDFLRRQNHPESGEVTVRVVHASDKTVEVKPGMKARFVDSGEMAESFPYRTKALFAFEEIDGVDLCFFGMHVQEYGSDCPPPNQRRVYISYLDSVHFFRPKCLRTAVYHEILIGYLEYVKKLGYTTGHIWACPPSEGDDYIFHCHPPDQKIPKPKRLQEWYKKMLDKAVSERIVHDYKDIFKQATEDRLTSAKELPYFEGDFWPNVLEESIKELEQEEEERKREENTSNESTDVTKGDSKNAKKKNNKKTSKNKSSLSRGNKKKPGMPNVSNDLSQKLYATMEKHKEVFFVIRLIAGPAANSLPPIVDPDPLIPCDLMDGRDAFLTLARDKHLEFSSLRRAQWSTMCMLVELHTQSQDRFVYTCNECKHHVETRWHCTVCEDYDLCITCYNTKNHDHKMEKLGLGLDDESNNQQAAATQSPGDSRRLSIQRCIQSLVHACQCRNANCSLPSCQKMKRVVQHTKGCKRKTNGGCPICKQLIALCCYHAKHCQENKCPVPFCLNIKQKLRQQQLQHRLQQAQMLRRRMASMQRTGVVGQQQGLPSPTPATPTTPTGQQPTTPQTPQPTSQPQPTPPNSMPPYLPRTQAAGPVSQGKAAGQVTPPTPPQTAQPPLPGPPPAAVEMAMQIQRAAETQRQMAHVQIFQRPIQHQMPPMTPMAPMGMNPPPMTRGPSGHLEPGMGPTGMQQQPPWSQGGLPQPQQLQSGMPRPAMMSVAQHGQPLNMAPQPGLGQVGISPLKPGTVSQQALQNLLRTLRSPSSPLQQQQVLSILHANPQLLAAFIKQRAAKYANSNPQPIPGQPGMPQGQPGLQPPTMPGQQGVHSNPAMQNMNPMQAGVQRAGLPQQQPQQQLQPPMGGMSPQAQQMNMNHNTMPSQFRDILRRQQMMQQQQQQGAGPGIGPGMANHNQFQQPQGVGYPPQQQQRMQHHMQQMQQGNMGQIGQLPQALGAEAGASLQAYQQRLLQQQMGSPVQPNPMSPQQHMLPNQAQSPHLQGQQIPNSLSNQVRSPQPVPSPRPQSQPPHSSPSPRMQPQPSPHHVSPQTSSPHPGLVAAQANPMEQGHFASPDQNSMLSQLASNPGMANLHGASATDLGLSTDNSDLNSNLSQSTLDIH
Target sequence in this assay (Q96SW2 whole entry partner): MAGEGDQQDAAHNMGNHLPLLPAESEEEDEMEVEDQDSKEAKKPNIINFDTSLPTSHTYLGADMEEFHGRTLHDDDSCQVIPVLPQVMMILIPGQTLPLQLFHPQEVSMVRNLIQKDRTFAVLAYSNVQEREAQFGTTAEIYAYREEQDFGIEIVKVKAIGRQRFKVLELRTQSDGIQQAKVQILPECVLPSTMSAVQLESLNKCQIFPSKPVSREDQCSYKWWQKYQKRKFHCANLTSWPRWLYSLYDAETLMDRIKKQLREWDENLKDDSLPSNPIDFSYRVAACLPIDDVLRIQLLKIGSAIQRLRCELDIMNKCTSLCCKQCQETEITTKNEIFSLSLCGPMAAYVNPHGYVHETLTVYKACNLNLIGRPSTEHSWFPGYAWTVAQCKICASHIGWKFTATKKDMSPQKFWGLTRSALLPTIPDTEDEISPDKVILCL

[4] = biological target: T1, Protein cereblon/Histone acetyltransferase p300; test: PROTAC activity at CRBN/p300 in human SK-HEP1 cells assessed as induction of p300 protein degradation incubated for 24 hrs by immunoblotting analysis; assay type: cell-based
[5] = biological target: T1, Protein cereblon/Histone acetyltransferase p300; test: PROTAC activity at CRBN/p300 in human SK-HEP1 cells assessed as induction of p300 degradation by measuring residual activity at 0.5 uM pretreated with thalidomide at 0.5 uM followed by compound addition by immunoblotting analysis relative to control; assay type: cell-based
Target sequence in this assay (Q09472 2-2414 limits assumed): as the sequence (Q09472 2-2414 limits assumed) above
Target sequence in this assay (Q96SW2 whole entry partner): as the sequence (Q96SW2 whole entry partner) above

[6] = biological target: T1, Protein cereblon/Histone acetyltransferase p300; test: PROTAC activity at CRBN/p300 in human SK-HEP1 cells assessed as induction of p300 protein degradation by measuring residual activity at 10 nM incubated for 24 hrs by immunoblotting analysis (reference value: 100%); assay type: cell-based
Target sequence in this assay (Q09472 2-2414 limits assumed): as the sequence (Q09472 2-2414 limits assumed) above
Target sequence in this assay (Q96SW2 whole entry partner): as the sequence (Q96SW2 whole entry partner) above

SK-HEP1 [7] = test: Antiproliferative activity against human SK-HEP1 cells assessed as inhibition of cell growth incubated for 5 days by CCK-8 assay; assay type: functional, cell-based; conditions: SK-HEP1, 120 h
SK-HEP1 [8] = test: Downregulation of ABI3BP mRNA expression in human SK-HEP1 cells at 1 uM incubated for 24 hrs by RT-qPCR analysis; assay type: functional, cell-based
[9] = biological target: T2, Protein cereblon/CREB-binding protein (Homo sapiens) (UniProt Q92793+Q96SW2); test: PROTAC activity at CRBN/CBP in human SK-HEP1 cells assessed as induction of […] protein degradation by measuring residual activity incubated for 24 hrs by immunoblotting analysis; assay type: cell-based; conditions: dose 0.5-2 µM
[10] = biological target: T2, Protein cereblon/CREB-binding protein (Homo sapiens); test: PROTAC activity at CRBN/CBP in human SK-HEP1 cells assessed as induction of […] protein degradation by measuring residual activity at 2 uM incubated for 24 hrs by immunoblotting analysis (reference value: 100%); assay type: cell-based
SK-HEP1 [11] = test: Downregulation of COL3A1 mRNA expression in human SK-HEP1 cells at 1 uM incubated for 24 hrs by RT-qPCR analysis; assay type: functional, cell-based
[12] = biological target: T1, Protein cereblon/Histone acetyltransferase p300; test: PROTAC activity at CRBN/p300 in human SK-HEP1 cells assessed as induction of p300 protein degradation by measuring residual activity at 1 uM incubated for 12 hrs by immunoblotting analysis (reference value: 100%); assay type: cell-based
Target sequence in this assay (Q09472 2-2414 limits assumed): as the sequence (Q09472 2-2414 limits assumed) above
Target sequence in this assay (Q96SW2 whole entry partner): as the sequence (Q96SW2 whole entry partner) above

SK-HEP1 [13] = test: Induction of cell cycle arrest at G2/M phase in human SK-HEP1 cells assessed as CDK6 protein level at 1 uM incubated for 24 hrs by immunoblotting analysis (reference value: 100%); assay type: functional
SK-HEP1 [14] = test: Inhibition of colony formation in human SK-HEP1 cells incubated for 14 days with compound containing media replacement for every 3 days by crystal violet staining based assay; assay type: functional, cell-based; conditions: dose 0.5-2 µM, time 14.0 day
[15] = biological target: T1, Protein cereblon/Histone acetyltransferase p300; test: PROTAC activity at CRBN/p300 in human SK-HEP1 cells assessed as induction of p300 degradation by measuring increase in p21 level at 0.5 uM pretreated with MG-132 at 1 uM followed by compound addition by immunoblotting analysis relative to control; assay type: cell-based
Target sequence in this assay (Q09472 2-2414 limits assumed): as the sequence (Q09472 2-2414 limits assumed) above
Target sequence in this assay (Q96SW2 whole entry partner): as the sequence (Q96SW2 whole entry partner) above

SK-HEP1 [16] = test: Induction of cell cycle arrest at G2/M phase in human SK-HEP1 cells assessed as reduction in CDK6 protein level at 2 uM incubated for 24 hrs by immunoblotting analysis (reference value: 100%); assay type: functional; parameters: scale not given: the % may be the effect or the level left
[17] = biological target: T1, Protein cereblon/Histone acetyltransferase p300; test: PROTAC activity at CRBN/p300 in human SK-HEP1 cells assessed as induction of p300 protein degradation by measuring residual activity at 250 nM incubated for 24 hrs by immunoblotting analysis (reference value: 100%); assay type: cell-based
Target sequence in this assay (Q09472 2-2414 limits assumed): as the sequence (Q09472 2-2414 limits assumed) above
Target sequence in this assay (Q96SW2 whole entry partner): as the sequence (Q96SW2 whole entry partner) above

[18] = biological target: T1, Protein cereblon/Histone acetyltransferase p300; test: PROTAC activity at CRBN/p300 in human SK-HEP1 cells assessed as increase in protein ubiquitination at 2 uM pretreated with MG132 at 1 uM followed by compound treatment and further incubated for 24 hrs by immunoblotting analysis (reference value: 100%); assay type: cell-based
SK-HEP1 [19] = test: Induction of cell cycle arrest at G2/M phase in human SK-HEP1 cells assessed as SKP2 protein level at 1 uM incubated for 24 hrs by immunoblotting analysis (reference value: 100%); assay type: functional
[20] = biological target: T1, Protein cereblon/Histone acetyltransferase p300; test: PROTAC activity at CRBN/p300 in human SK-HEP1 cells with siRNA mediated CRBN knockdown assessed as induction of p300 degradation by measuring residual activity at 1 uM by immunoblotting analysis relative to control; assay type: cell-based
[21] = biological target: T1, Protein cereblon/Histone acetyltransferase p300; test: PROTAC activity at CRBN/p300 in human SK-HEP1 cells assessed as induction of p300 degradation by measuring residual activity at 0.5 uM pretreated with MLN4924 at 0.5 uM followed by compound addition by immunoblotting analysis relative to control; assay type: cell-based
[22] = biological target: T2, Protein cereblon/CREB-binding protein (Homo sapiens); test: In vivo PROTAC activity at CRBN/CBP in nude mouse xenografted with human SK-HEP1 cells assessed as reduction in CBP protein level in tumor at 50 mg/kg, ip measured after 24 hrs by immunoblotting analysis; assay type: functional, organism-based
SK-HEP1 [23] = test: Downregulation of POSTN mRNA expression in human SK-HEP1 cells at 1 uM incubated for 24 hrs by RT-qPCR analysis; assay type: functional, cell-based
[24] = biological target: T1, Protein cereblon/Histone acetyltransferase p300; test: PROTAC activity at CRBN/p300 in human SK-HEP1 cells assessed as induction of p300 protein degradation at 0.1 uM incubated for 24 hrs relative to control; assay type: cell-based
[25] = biological target: T1, Protein cereblon/Histone acetyltransferase p300; test: PROTAC activity at CRBN/p300 in human SK-HEP1 cells assessed as induction of p300 degradation by measuring residual activity at 0.5 uM pretreated with MLN4924 at 0.1 uM followed by compound addition by immunoblotting analysis relative to control; assay type: cell-based
[26] = biological target: T1, Protein cereblon/Histone acetyltransferase p300; test: PROTAC activity at CRBN/p300 in human SK-HEP1 cells assessed as induction of p300 protein degradation by measuring residual activity at 1 uM incubated for 1 hrs by immunoblotting analysis (reference value: 100%); assay type: cell-based
[27] = biological target: T2, Protein cereblon/CREB-binding protein (Homo sapiens); test: PROTAC activity at CRBN/CBP in human SK-HEP1 cells assessed as induction of […] protein degradation by measuring residual activity at 1 uM incubated for 24 hrs by immunoblotting analysis (reference value: 100%); assay type: cell-based
SK-HEP1 [28] = test: Induction of cell cycle arrest at G2/M phase in human SK-HEP1 cells assessed as CDK6 protein level at 0.5 uM incubated for 24 hrs by immunoblotting analysis (reference value: 100%); assay type: functional
[29] = biological target: T1, Protein cereblon/Histone acetyltransferase p300; test: PROTAC activity at CRBN/p300 in human SK-HEP1 cells assessed as induction of p300 protein degradation at 0.01 uM incubated for 24 hrs relative to control; assay type: cell-based
[30] = biological target: T1, Protein cereblon/Histone acetyltransferase p300; test: PROTAC activity at CRBN/p300 in human SK-HEP1 cells assessed as induction of p300 protein degradation at 1 uM incubated for 24 hrs relative to control; assay type: cell-based

- Activity [3]: 59%
- Activity [4]: Dose-Dependent Effect
- DC50 [4]: 93 nM
- Activity [5]: 99%
- Activity [6]: 70%
- IC50 (SK-HEP1 [7]): 733 nM
- Activity [9]: Dose-Dependent Effect
- Activity [10]: 89%
- Activity [12]: 58%
- Activity [15]: 537%
- Activity [17]: 38%
- Activity [18]: 114%
- Activity [20]: 78%
- Activity [21]: 101%
- Activity [22]: Active
- Activity [24]: 27%
- Activity [25]: 115%
- Activity [26]: 78%
- Activity [27]: 92%
- Activity [29]: 9%
- Activity [30]: 47%
SMILES: Cc1noc(C)c1-c1ccc2c(c1)nc([C@@H]1CCCC(=O)N1c1ccc(F)c(F)c1)n2C1CCN(C2CN(c3ccc4c(c3)C(=O)N(C3CCC(=O)NC3=O)C4=O)C2)CC1 (stereo partly specified)
- Activity (SK-HEP1 [1]): 60%
- Activity (SK-HEP1 [2]): Active
- Activity (SK-HEP1 [8]): Active
- Activity (SK-HEP1 [11]): Active
- Activity (SK-HEP1 [13]): 102%
- inhibition (SK-HEP1 [14]): Dose-Dependent Effect
- Activity (SK-HEP1 [16]): 87%
- Activity (SK-HEP1 [19]): 88%
- Activity (SK-HEP1 [23]): Active
- Activity (SK-HEP1 [28]): 104%
